Measured values: US20260022143A1, “Cyclic Peptide Inhibitors of IL-23” (JANSSEN PHARMACEUTICA NV, priority 2022, published 2026)
Starred links: 1 amine or outer side, 2 acyl side, 3 side chain; linkers in the order of their positions; H or OH if unused. Positions of bridges follow the written chain, without caps; N, C: chain ends. Non-standard residues stand in square brackets, D forms with d. Residues, ends and D or L forms follow the SMILES beside them. Groups on a side chain read outwards from the residue. *: point of attachment. Trp(7-(3-AcNH-Ph)) = CC(=O)Nc1cccc(-c2cccc3c(C[C@H](N)C(=O)O)c[nH]c23)c1; Me3N+(CH2)2O(CH2)2O(CH2)2CO = C[N+](C)(C)CCOCCOCCC(=O)*; CH2CH2OCH2CH2OCH2CH2NMe3+ = C[N+](C)(C)CCOCCOCC*; Trp(7-Me) = Cc1cccc2c(C[C@H](N)C(=O)O)c[nH]c12; Abu(4-yl) = O=C([C@H](CC[*:3])N[*:1])[*:2]; dLys(Me3) = C[N+](C)(C)CCCC[C@@H](N)C(=O)O; 3Pal(5-Me) = Cc1cncc(C[C@H](N)C(=O)O)c1; γGlu = O=C(O)[C@H](CCC(=O)[*:2])N[*:1]; 2Nal = N[C@@H](Cc1ccc2ccccc2c1)C(=O)O; AEF = NCCOc1ccc(C[C@H](N)C(=O)O)cc1; 3Pal = N[C@@H](Cc1cccnc1)C(=O)O; Lys(Me) = CNCCCC[C@H](N)C(=O)O; NMeK = CN[C@@H](CCCCN)C(=O)O; Pen = CC(C)(S)[C@H](N)C(=O)O; Lauroyl = CCCCCCCCCCCC(=O)*; αMeC = C[C@](N)(CS)C(=O)O; Thp = NC1(C(=O)O)CCOCC1; X3 = C[N+](C)(C)CCCCC*; AEEA = NCCOCCOCC(=O)O; Sar = CNCC(=O)O; X58 = NCCCCC*

Experiments:
IL-23R = biological target: T1, IL-23R (Homo sapiens, UniProt Q5VWK5); test: IL23R Reporter Assay; format: cell-based; conditions: HEK293 cells containing IL-23R, IL-12RP1 and STAT-inducible firefly luciferase reporter; 10 ng/mL IL-23 (EC90); 5 h at 37° C.; read-out: IL23R Reporter Assay
T1 construct: host or cells: HEK293
T1 sequence (Q5VWK5 24-629): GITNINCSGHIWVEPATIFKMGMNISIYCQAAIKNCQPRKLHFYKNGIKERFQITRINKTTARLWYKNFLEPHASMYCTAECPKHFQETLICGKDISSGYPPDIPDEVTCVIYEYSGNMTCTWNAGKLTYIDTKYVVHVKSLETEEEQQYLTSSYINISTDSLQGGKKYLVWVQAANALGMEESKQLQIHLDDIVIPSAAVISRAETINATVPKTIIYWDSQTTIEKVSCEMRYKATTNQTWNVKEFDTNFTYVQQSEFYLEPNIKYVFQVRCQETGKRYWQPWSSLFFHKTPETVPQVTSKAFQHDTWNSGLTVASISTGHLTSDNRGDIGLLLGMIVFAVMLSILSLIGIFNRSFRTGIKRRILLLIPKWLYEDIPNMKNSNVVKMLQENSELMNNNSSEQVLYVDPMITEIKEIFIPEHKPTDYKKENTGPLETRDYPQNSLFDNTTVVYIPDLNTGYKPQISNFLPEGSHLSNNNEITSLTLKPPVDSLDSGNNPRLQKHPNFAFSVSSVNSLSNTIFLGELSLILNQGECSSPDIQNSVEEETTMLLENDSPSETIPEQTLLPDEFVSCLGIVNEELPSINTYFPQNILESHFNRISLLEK

[1] = Exposed Polar Surface Area (EPSA); format: physicochemical; conditions: SFC on Chirex 3014 column; sample 1 mM DMSO stock; read-out: EPSA
Outline: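 EPSA, in Å^2, is read from SFC retention time through a linear relationship established with eight calibration standards. Separation uses a Chirex 3014 stationary phase, 35 °C, 14 MPa back pressure, and a 5–60% methanol/ammonium formate modifier gradient in CO2.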

CC(=O)NCCCC[C@@H]1NC(=O)[C@H](Cc2c[nH]c3c(C)cccc23)NC(=O)[C@H]([C@@H](C)O)NC(=O)[C@H](CC(N)=O)NC(=O)[C@@H](NC(=O)COCCOCCNC(=O)COCCOCCNC(=O)CCCc2ccc(I)cc2)C(C)(C)SSC(C)(C)[C@@H](C(=O)N[C@@H](Cc2ccc(OCCCCC[N+](C)(C)C)cc2)C(=O)N[C@@H](Cc2ccc3ccccc3c2)C(=O)NC2(C(=O)N[C@@H](CCCCNC(C)=O)C(=O)N[C@@H](CC(N)=O)C(=O)N[C@@H](Cc3cccnc3)C(=O)N(C)CC(N)=O)CCOCC2)NC1=O [compound 491, IPBPEG2PEG2CO-Pen(3)-N-T-7MeW-K(Ac)-Pen(3)-TMAPF-2Nal-THP-K(Ac)-N-3Pya-Sar-CONH2] gave an IC50 (IL-23R) of 0.0083 µM and an EPSA [1] of 168 A^2.

CC(=O)N(C)CCCC[C@@H]1NC(=O)[C@H](Cc2c[nH]c3c(C)cccc23)NC(=O)[C@H]([C@@H](C)O)NC(=O)[C@H](CC(=O)N(C)C)NC(=O)[C@@H](NC(=O)CCOCCOCC[N+](C)(C)C)C(C)(C)SSC(C)(C)[C@@H](C(=O)N[C@@H](Cc2ccc(OCCCCCN)cc2)C(=O)N[C@@H](Cc2ccc3ccccc3c2)C(=O)NC2(C(=O)N[C@@H](CCCCN(C)C(C)=O)C(=O)N[C@@H](CC(N)=O)C(=O)N[C@@H](Cc3cccnc3)C(=O)N(C)CC(=O)N(C)C)CCOCC2)NC1=O [compound 528, cPEG3aCO-Pen(3)-N(N(Me)2)-T-7MeW-K(NMeAc)-Pen(3)-APF-2Nal-THP-K(NMeAc)-N-3Pya-Sar-CON(Me)2] ({Me3N+(CH2)2O(CH2)2O(CH2)2CO}-[Pen]D(NMe2)T[Trp(7-Me)][Lys(Me)](Ac)[Pen]Y(X58)[2Nal][Thp][Lys(Me)](Ac)N[3Pal][Sar]-NMe2; disulfide 1-6) showed an IC50 (IL-23R) of 0.0038 µM and an EPSA [1] of 163 A^2.

CC(=O)NCCCC[C@@H]1NC(=O)[C@H](Cc2c[nH]c3ccccc23)NC(=O)[C@H]([C@@H](C)O)NC(=O)[C@H](CC(N)=O)NC(=O)[C@@H](NC(=O)[C@H](CCCNC(=N)N)NC(=O)CCOCCOCC[N+](C)(C)C)CCSC[C@@](C)(C(=O)N[C@@H](Cc2ccc(OCCCCC[N+](C)(C)C)cc2)C(=O)N[C@@H](Cc2ccc3ccccc3c2)C(=O)NC2(C(=O)N[C@@H](CCC(=O)O)C(=O)N[C@@H](CC(N)=O)C(=O)N[C@@H](Cc3cccnc3)C(=O)N(C)CC(N)=O)CCOCC2)NC1=O [compound 516, cPEG3aCO-r-Abu(1)-N-T-W-K(Ac)-aMeC(1)-TMAPF-2Nal-THP-E-N-3Pya-Sar-CONH2] ({Me3N+(CH2)2O(CH2)2O(CH2)2CO}-R[Abu(4-yl)]NTWK(Ac)[αMeC]Y(X3)[2Nal][Thp]EN[3Pal][Sar]-NH2; thioether 2-7) showed an IC50 (IL-23R) of 0.05 µM and an EPSA [1] of 237 A^2.

CCCCCCCCCCCC(=O)N[C@@H](CCC(=O)NCCOCCOCC(=O)NCCOCCOCC(=O)NCCCC[C@@H]1NC(=O)[C@H](Cc2c[nH]c3c(C)cccc23)NC(=O)[C@H]([C@@H](C)O)NC(=O)[C@H](CC(=O)N(C)C)NC(=O)[C@@H](NC(=O)CCOCCOCC[N+](C)(C)C)C(C)(C)SSC(C)(C)[C@@H](C(=O)N[C@@H](Cc2ccc(OCCCCC[N+](C)(C)C)cc2)C(=O)N[C@@H](Cc2ccc3ccccc3c2)C(=O)NC2(C(=O)N[C@@H](CCCCN(C)C(C)=O)C(=O)N[C@@H](CC(N)=O)C(=O)N[C@@H](Cc3cccnc3)C(=O)N(C)[C@@H](CCCCNC(=O)COCCOCCNC(=O)COCCOCCNC(=O)CC[C@H](NC(=O)CCCCCCCCCCC)C(=O)O)C(N)=O)CCOCC2)NC1=O)C(=O)O [compound 352, cPEG3aCO-Pen(3)-N(N(Me)2)-T-7MeW-K(PEG2PEG2gEC12)-Pen(3)-TMAPF-2Nal-THP-K(NMeac)-N-3Pya-NMeK(PEG2PEG2gEC12)-CONH2] ({Me3N+(CH2)2O(CH2)2O(CH2)2CO}-[Pen]D(NMe2)T[Trp(7-Me)]K([AEEA-AEEA-γGlu-Lauroyl])[Pen]Y(X3)[2Nal][Thp][Lys(Me)](Ac)N[3Pal][NMeK]([AEEA-AEEA-γGlu-Lauroyl])-NH2; disulfide 1-6) showed an IC50 (IL-23R) of 0.19 µM and an EPSA [1] of 179 A^2.

CC(=O)NCCCC[C@@H]1NC(=O)[C@H](Cc2c[nH]c3c(C)cccc23)NC(=O)[C@H]([C@@H](C)O)NC(=O)[C@H](CC(N)=O)NC(=O)[C@@H](NC(=O)[C@@H](CCCC[N+](C)(C)C)NC(C)=O)C(C)(C)SSC(C)(C)[C@@H](C(=O)N[C@@H](Cc2ccc(OCCN)cc2)C(=O)N[C@@H](Cc2ccc3ccccc3c2)C(=O)NC2(C(=O)N[C@@H](CCCCNC(C)=O)C(=O)N[C@@H](CC(N)=O)C(=O)N[C@@H](Cc3cncc(C)c3)C(=O)N(C)CC(N)=O)CCOCC2)NC1=O [compound 533, MeCO-k(Me)3-Pen(3)-N-T-7MeW-K(Ac)-Pen(3)-AEF-2Nal-THP-K(Ac)-N-5MePyridinAla-Sar-CONH2] (Ac-[dLys(Me3)][Pen]NT[Trp(7-Me)]K(Ac)[Pen][AEF][2Nal][Thp]K(Ac)N[3Pal(5-Me)][Sar]-NH2; disulfide 2-7) showed an IC50 (IL-23R) of 0.0016 µM and an EPSA [1] of 170 A^2.

For CC(=O)NCCCC[C@@H]1NC(=O)[C@H](Cc2c[nH]c3c(-c4cccc(NC(C)=O)c4)cccc23)NC(=O)[C@H]([C@@H](C)O)NC(=O)[C@H](CC(N)=O)NC(=O)[C@@H](NC(C)=O)CCSC[C@@](C)(C(=O)N[C@@H](Cc2ccc(OCCCCC[N+](C)(C)C)cc2)C(=O)N[C@@H](Cc2ccc3ccccc3c2)C(=O)NC2(C(=O)N[C@@H](CCCCNC(C)=O)C(=O)N[C@@H](CC(N)=O)C(=O)N[C@@H](Cc3cccnc3)C(=O)N(C)CC(N)=O)CCOCC2)NC1=O [compound 477, MeCO-Abu(1)-N-T-7(3NAcPh)W-K(Ac)-aMeC(1)-TMAPF-2Nal-THP-K(Ac)-N-3Pya-Sar-CONH2] (Ac-[Abu(4-yl)]NT[Trp(7-(3-AcNH-Ph))]K(Ac)[αMeC]Y(X3)[2Nal][Thp]K(Ac)N[3Pal][Sar]-NH2; thioether 1-6), the IC50 (IL-23R) was 0.0061 µM and the EPSA [1] was 166 A^2.

With CCCCCCCCCCCC(=O)N[C@@H](CCC(=O)NCCOCCOCC(=O)NCCOCCOCC(=O)NCCCC[C@@H]1NC(=O)[C@H](Cc2c[nH]c3c(C)cccc23)NC(=O)[C@H]([C@@H](C)O)NC(=O)[C@H](CCCCNC(=O)COCCOCCNC(=O)COCCOCCNC(=O)CC[C@H](NC(=O)CCCCCCCCCCC)C(=O)O)NC(=O)[C@@H](NC(=O)CCOCCOCC[N+](C)(C)C)C(C)(C)SSC(C)(C)[C@@H](C(=O)N[C@@H](Cc2ccc(OCCCCC[N+](C)(C)C)cc2)C(=O)N[C@@H](Cc2ccc3ccccc3c2)C(=O)NC2(C(=O)N[C@@H](CCCCN(C)C(C)=O)C(=O)N[C@@H](CC(N)=O)C(=O)N[C@@H](Cc3cccnc3)C(=O)N(C)CC(=O)N(C)C)CCOCC2)NC1=O)C(=O)O [compound 389, cPEG3aCO-Pen(3)-K(PEG2PEG2gEC12)-T-7MeW-K(PEG2PEG2gEC12)-Pen(3)-TMAPF-2Nal-THP-K(NMeAc)-N-3Pya-Sar-CON(Me)2] ({Me3N+(CH2)2O(CH2)2O(CH2)2CO}-[Pen]K([AEEA-AEEA-γGlu-Lauroyl])T[Trp(7-Me)]K([AEEA-AEEA-γGlu-Lauroyl])[Pen]Y(X3)[2Nal][Thp][Lys(Me)](Ac)N[3Pal][Sar]-NMe2; disulfide 1-6) the IC50 (IL-23R) was 0.39 µM and the EPSA [1] was 185 A^2.

CC(=O)N(C)CCCC[C@H](NC(=O)[C@H](Cc1ccccc1)NC(=O)[C@H](Cc1ccc2ccccc2c1)NC(=O)[C@H](Cc1ccc(OCCOCCOCC[N+](C)(C)C)cc1)NC(=O)[C@H]1NC(=O)[C@H](Cc2ccccc2)NC(=O)[C@H](Cc2c[nH]c3c(C)cccc23)NC(=O)[C@H]([C@@H](C)O)NC(=O)[C@H](Cc2ccccc2)NC(=O)[C@@H](NC(=O)CCOCCOCC[N+](C)(C)C)C(C)(C)SSC1(C)C)C(=O)N[C@@H](CC(N)=O)C(=O)N[C@@H](Cc1cccnc1)C(=O)N(C)CC(=O)N(C)C [compound 464, cPEG3aCO-Pen(3)-F-T-7MeW-F-Pen(3)-APEG3f-2Nal-F-K(NMeAc)-N-3Pya-Sar-CON(Me)2] ({Me3N+(CH2)2O(CH2)2O(CH2)2CO}-[Pen]FT[Trp(7-Me)]F[Pen]Y(CH2CH2OCH2CH2OCH2CH2NMe3+)[2Nal]F[Lys(Me)](Ac)N[3Pal][Sar]-NMe2; disulfide 1-6) gave an IC50 (IL-23R) of 0.03 µM and an EPSA [1] of 160 A^2.

In the case of CC(=O)NCCCC[C@@H]1NC(=O)[C@H](Cc2c[nH]c3c(C)cccc23)NC(=O)[C@H]([C@@H](C)O)NC(=O)[C@H](CC(N)=O)NC(=O)[C@@H](NC(=O)CCCc2ccc(I)cc2)C(C)(C)SSC(C)(C)[C@@H](C(=O)N[C@@H](Cc2ccc(OCCCCC[N+](C)(C)C)cc2)C(=O)N[C@@H](Cc2ccc3ccccc3c2)C(=O)NC2(C(=O)N[C@@H](CCCCNC(=O)COc3ccc(-c4ccc(F)cc4F)cc3C(=O)O)C(=O)N[C@@H](CC(N)=O)C(=O)N[C@@H](Cc3cccnc3)C(=O)N(C)CC(N)=O)CCOCC2)NC1=O [compound 525, IPBCO-Pen(3)-N-T-7MeW-K(Ac)-Pen(3)-TMAPF-2Nal-THP-K(DFN)-N-3Pya-Sar-CONH2], the IC50 (IL-23R) is reported as 0.051 µM and the EPSA [1] is reported as 195 A^2.
